Laboratory results: article PMC10033419, “Blocking NS3–NS4B interaction inhibits dengue virus in non-human primates” (Nature, 2023)
Several values for one entry are separate records, joined by “and”; a condition that tells them apart may be missing. Equal values may be shown once. Read-outs that look alike come from different tables or passages of the source.

Key:
[1] = system: DENV-2 RL strain; test: In vivo kinetics study, low viral inoculum (10^2 PFU); details: for In vivo kinetics - viral RNA, Mean of Log10: group mean
[2] = system: INF-B Singapore; test: microbe, parasite or virus in culture; format: cell-based; details: Influenza B virus, MDCK
[3] = in vitro; details: African green monkey
[4] = system: VACV Western reserve 56; test: microbe, parasite or virus in culture; format: cell-based; details: Orthopoxvirus vaccinia, Vero C1008; VeroE6
[5] = system: HCV Genotype 1b replicon; test: microbe, parasite or virus in culture; format: cell-based; details: Hepatitis C virus
[6] = system: DENV-2/16681; test: NHP DENV-2 study, anti-DENV IgM ELISA; design: species or system rhesus macaques (M. mulatta); details: rhesus monkey, in vivo
[7] = format: in vivo, rhesus macaques
Excerpt: WRAIR is fully accredited by AAALAC International.

[8] = system: DENV-2/16681/eGFP; test: microbe, parasite or virus in culture; format: cell-based; details: Dengue virus, DENV2, Vero
[9] = design: method as in earlier work; details: healthy volunteers ref 4; cited from earlier work
[10] = system: hCMV AD169; test: microbe, parasite or virus in culture; format: cell-based; details: Human betaherpesvirus 5, AD169, MRC5; MRC-5
[11] = rhesus monkey, in vivo
[12] = system: DENV-2/16681/eGFP; test: microbe, parasite or virus in culture; format: cell-based; details: Dengue virus
[13] = JNJ-1802 0.2 mg/kg/d, day 8 p.i., individual mice, 0.2 mg/kg/day
[14] = JNJ-1802 0.2 mg/kg/d, day 11 p.i., individual mice
[15] = JNJ-1802 2 mg/kg/d, day 5 p.i., individual mice
[16] = JNJ-1802 2 mg/kg/d, day 6 p.i., individual mice
[17] = JNJ-1802 2 mg/kg/d, day 8 p.i., individual mice
[18] = JNJ-1802 2 mg/kg/d, day 11 p.i., individual mice, 2 mg/kg/day
[19] = JNJ-1802 20 mg/kg/d, day 5 p.i., individual mice
[20] = JNJ-1802 20 mg/kg/d, day 6 p.i., individual mice
[21] = JNJ-1802 20 mg/kg/d, day 8 p.i., individual mice
[22] = JNJ-1802 20 mg/kg/d, day 11 p.i., individual mice

With `COc1cc(N[C@H](C(=O)c2c[nH]c3ccc(OC(F)(F)F)cc23)c2ccc(Cl)cc2OC)cc(S(C)(=O)=O)c1` [JNJ-1802] the “In vivo kinetics - viral RNA, Log10” value ([1]; JNJ-1802 0.2 mg/kg/d, day 6 p.i., individual mice, 0.2 mg/kg/day) was 4.6493 Log10 and 4.4198 Log10 and 4.8549 Log10 and 5.1560 Log10 and 4.3639 Log10 and 5.2645 Log10 and 4.9143 Log10 and 3.9243 Log10, the “In vivo kinetics - viral RNA, Mean of Log10” value ([1]; JNJ-1802 0.2 mg/kg/d, day 8 p.i.) was 3.63 Log10 and the “In vivo kinetics - viral RNA, Copies/ml” value [1, 13] was 3.93E+02 Copies/ml and 4.25E+05 Copies/ml and 5.92E+05 Copies/ml. For the same molecule, the “In vivo kinetics - viral RNA, Log10” value [1, 13] was 2.5940 Log10 and 5.6283 Log10 and 5.7725 Log10, the “In vivo kinetics - viral RNA, Mean of Log10” value ([1]; JNJ-1802 0.2 mg/kg/d, day 11 p.i.) was 2.59 Log10 and the “In vivo kinetics - viral RNA, Copies/ml” value [1, 14] was 3.93E+02 Copies/ml. For the same molecule, the “In vivo kinetics - viral RNA, Log10” value [1, 14] was 2.5940 Log10, the “In vivo kinetics - viral RNA, Copies/ml” value [1, 15] was 3.93E+02 Copies/ml and the “In vivo kinetics - viral RNA, Log10” value [1, 15] was 2.5940 Log10. For the same molecule, the “In vivo kinetics - viral RNA, Mean of Log10” value ([1]; JNJ-1802 2 mg/kg/d, day 6 p.i.) was 2.59 Log10, the “In vivo kinetics - viral RNA, Copies/ml” value [1, 16] was 3.93E+02 Copies/ml and the “In vivo kinetics - viral RNA, Log10” value [1, 16] was 2.5940 Log10. For the same molecule, the “In vivo kinetics - viral RNA, Mean of Log10” value ([1]; JNJ-1802 2 mg/kg/d, day 8 p.i.) was 2.59 Log10, the “In vivo kinetics - viral RNA, Copies/ml” value [1, 17] was 3.93E+02 Copies/ml and the “In vivo kinetics - viral RNA, Log10” value [1, 17] was 2.5940 Log10. The “In vivo kinetics - viral RNA, Mean of Log10” value ([1]; JNJ-1802 2 mg/kg/d, day 11 p.i.) was 2.74 Log10, the “In vivo kinetics - viral RNA, Copies/ml” value [1, 18] was 3.93E+02 Copies/ml and 3.01E+03 Copies/ml and the “In vivo kinetics - viral RNA, Log10” value [1, 18] was 2.5940 Log10 and 3.4790 Log10. For the same molecule, the “In vivo kinetics - viral RNA, Copies/ml” value [1, 19] was 3.93E+02 Copies/ml, the “In vivo kinetics - viral RNA, Log10” value [1, 19] was 2.5940 Log10 and the “In vivo kinetics - viral RNA, Mean of Log10” value ([1]; JNJ-1802 20 mg/kg/d, day 6 p.i.) was 2.59 Log10. For the same molecule, the “In vivo kinetics - viral RNA, Copies/ml” value [1, 20] was 3.93E+02 Copies/ml, the “In vivo kinetics - viral RNA, Log10” value [1, 20] was 2.5940 Log10 and the “In vivo kinetics - viral RNA, Mean of Log10” value ([1]; JNJ-1802 20 mg/kg/d, day 8 p.i.) was 2.59 Log10. For the same molecule, the “In vivo kinetics - viral RNA, Copies/ml” value [1, 21] was 3.93E+02 Copies/ml, the “In vivo kinetics - viral RNA, Log10” value [1, 21] was 2.5940 Log10 and the “In vivo kinetics - viral RNA, Mean of Log10” value ([1]; JNJ-1802 20 mg/kg/d, day 11 p.i.) was 2.59 Log10. For the same molecule, the “In vivo kinetics - viral RNA, Copies/ml” value [1, 22] was 3.93E+02 Copies/ml, the “In vivo kinetics - viral RNA, Log10” value [1, 22] was 2.5940 Log10 and the “In vivo kinetics, Mean of Log10” value ([1]; mouse, in vivo) was 2.78 Log10. For the same molecule, the “In vivo kinetics - viral RNA, Copies/ml” value ([1]; mouse, in vivo, 0.2 mg/kg/day) was 7.16E+04 Copies/ml and 1.43E+05 Copies/ml, the EC50 [2] was over 2600 nM and the EC50 ([2]; read-out: EC50, Mean) was over 25000 nM. The EC90 ([2]; read-out: EC90, Mean) was over 25000 nM, the CC50 [3] was 16000 nM and the EC50 [4] was 8900 nM. The EC50 [5] was 5500 nM, the EC50 ([5]; read-out: EC50, Mean) was 5450 nM and the EC90 ([5]; read-out: EC90, Mean) was 20300 nM. For the same molecule, the “IgG and IgM seroconversion” value [6] was “occurred in all of the animals”, the IgM seroconversion [6] was “occurred at later timepoints” and the “animals with detectable anti-DENV IgM” value [6] was “one out of three”. The “Weight change (%)” value ([7]; Day 1, individual animals) was -0.3571% and -0.3226%, the “Weight change (%)” value ([7]; Day 3, individual animals) was -0.3571% and the “Weight change (%)” value ([7]; Day 5, individual animals) was 0.3226%. For the same molecule, the “Weight change (%)” value ([7]; Day 8, individual animals) was 1.143%, the “Weight change (%)” value ([7]; Day 9, individual animals) was -1.29% and the “Weight change (%)” value ([7]; Day 10, individual animals) was 0.3226%. The “Weight change (%)” value ([7]; Day 29, individual animals) was 1.711%, the “Weight change (%)” value ([7]; Day -2, individual animals) was -0.3571% and 0.3226% and the EC50 ([8]; Vero with 50% HS, read-out: EC50, protein-binding-adjusted) was 1.4 nM. The EC90 ([8]; Vero with 50% HS, read-out: EC90, protein-binding-adjusted) was 4.8 ± 1.4 nM, the EC50 ([8]; Vero, mean ± s.d., read-out: EC50) was 0.059 ± 0.03 nM and the EC90 ([8]; Vero, read-out: EC90) was 0.161 ± 0.083 nM. The EC50 ([8]; two DENV-2 laboratory strains in Vero, Huh-7, C6/36, THP-1/DC-SIGN, read-out: mean EC50, range) was 0.059 to 1.24 nM, the “safety and tolerability in humans” value [9] was “safe and well tolerated” and the EC50 [10] was 9000 nM. The haematological analysis [11] was “did not show any indication for a treatment-related effect”, the EC90 ([12]; DENV2, Huh-7, Huh-7, read-out: EC90) was 0.53 ± 0.31 nM and the EC90 ([12]; DENV2, Huh-7, read-out: EC90 Mean) was 0.533 nM.
